Reference: US7893071B2, “Synthesis and evaluation of novel phthalimide mimics as anti-angiogenic” (University of Virginia Patent Foundation, priority 2001, dated 2011)

Columns and labels:
[1] = tested on: angiogenesis induced by basic fibroblast growth factor (bFGF); conditions: cited from earlier work
[2] = tested on: corneal angiogenesis induced by vascular endothelial growth factor (VEGF); conditions: cited from earlier work
[3] = tested on: human vascular endothelial cells (HUVECS); test: Endothelial cell proliferation assay ([3H]-thymidine incorporation); format: cell-based; conditions: HUVEC, 20% serum, preliminary IC50 data, read-out: Inhibition of Endothelial Cell Proliferation (IC50 μM)
Procedure: Endothelial Cell Proliferation Assay.
The human vascular endothelial cells (HUVECS) were cultured to peri-confluence (80%) in 20% serum and treated with thalidomide (standard) or its analog (40-400 μM). After 20 h, [^3H]-thymidine (2 μCi/ml) was added to the culture medium for 2-4 h. The [^3H]-thymidine incorporation was stopped with ice-cold PBS (3 washes) and the cells were incubated with cold 10% trichloroacetic acid (TCA) for 10 min at 4° C. The cells were further incubated with TCA at room temperature for 10 min and washed three times with PBS. The cells were solubilized overnight with 1N NaOH and neutralized with an equivalent amount of 1N HCl before radioactivity was determined. The anti-proliferative activity of thalidomide or its analog was computed as a percent inhibition of HUVECS mitogenic response to 20% serum (fetal calf serum).

angiogenesis = conditions: oral; cited from earlier work
endothelial cells = conditions: in vitro; cited from earlier work

| Structure (SMILES) | IC50 [3] [µM] | also measured |
| --- | --- | --- |
| O=C1CC[C@H](N2C(=O)c3ccccc3C2=O)C(=O)N1 (single isomer, unassigned) [S(−)-enantiomer of thalidomide] |  | anti-angiogenic activity of enantiomers, bFGF-induced corneal neovascularization ([1]; comparison of enantiomers): strongest anti-angiogenic activity; anti-angiogenic activity of enantiomers, VEGF-induced corneal neovascularization ([2]; comparison of enantiomers): strongest anti-angiogenic activity |
| O=C1CCC(N2C(=O)c3ccccc3C2=O)C(=O)N1 (stereo not drawn) [Compound 1, thalidomide] | 200 | effect on angiogenesis, bFGF induced corneal micropocket ([1]; rabbit): inhibitory effects; effect on angiogenesis, orally in mice models (angiogenesis): inhibitory effects; endothelial cell proliferation in treated cultures (endothelial cells): significant decrease; inhibition of corneal angiogenesis ([2]; rabbits, pellet with 500 or 750 ng VEGF, two daily feedings of 200 mg/kg, after the 5th day of treatment, P<0.0001): statistically significant inhibition |
| O=C1c2ccccc2C(=O)N1c1ccc2c(c1)CCC2 [Compound 5] | 85 |  |
| O=C1c2ccccc2C(=O)N1C1CCCc2ccccc21 (stereo not drawn) [Compound 7] | > 400 |  |
| CCC(c1cccc2ccccc12)N1C(=O)c2ccccc2C1=O (stereo not drawn) [Compound 29] | 45 |  |
| CCCCCCC(c1ccc(OC)c(OC)c1)N1C(=O)c2ccccc2C1=O (stereo not drawn) [Compound 32] | < 38.5 |  |
| CCOc1ccccc1N1C(=O)c2ccccc2C1=O [Compound 50] | 110 |  |
| Cc1cc(N)ccc1N1C(=O)c2ccc(Cl)cc2C1=O [Compound 51] | 350 |  |
| O=C1CC(N2C(=O)c3ccccc3C2=O)CC(=O)O1 [Compound 52] | > 400 |  |
| O=C1NC(=O)c2c1cccc2[N+](=O)[O-] [Compound 53] | > 400 |  |
